Measured values published in ChEMBL document CHEMBL1137745, “Computational modeling and surface plasmon resonance analyses in the assessment of peptide ligands interacting with fibrin gamma(312-324) epitope” (Eur J Med Chem, 2009).
Peptide text beside a SMILES is read from it.

Columns and labels:
[1] = Binding affinity to gamma (312-324) epitope of human fibrinogen by Biacore X system
[2] = Binding affinity to gamma (312-324) epitope of human fibrinogen measured at flow rate of 5 ul/min by Biacore X system
[3] = Binding affinity to gamma (312-324) epitope of human fibrinogen measured at flow rate of 30 ul/min by Biacore X system

Compound	Kd [1] [µM]	Kd [2] [µM]	Kd [3] [µM]
NCCCC[C@H](NC(=O)[C@H](CCC(=O)O)NC(=O)[C@@H](N)CCCCN)C(N)=O (H-Lys-Glu-Lys-NH2)	25	35	15
N=C(N)NCCC[C@H](NC(=O)[C@H](CC(=O)O)NC(=O)[C@@H](N)CCCCN)C(N)=O (H-Lys-Asp-Arg-NH2)	34.4	52.6	16.2

Now those with a lower Kd [1], led by results:

Kd [1] [µM]	Kd [2] [µM]	Kd [3] [µM]	Compound
0.25	0.3	0.2	H-RDKDR-NH2
23.6	30.4	16.8	Ac-RDKDR-OH
17.5	13	21.9	N=C(N)NCCC[C@H](NC(=O)[C@H](CCC(=O)O)NC(=O)[C@@H](N)CCCCN)C(N)=O (H-Lys-Glu-Arg-NH2)
